Active and inactive are the calls of the source.
Tests used:
[1] = mouse fibroblast viability loss – cell-based, cherry-pick samples, set 2, cytotoxicity control for T. cruzi growth inhibitor project, dose response (AID 651817); format: functional; conditions: NIH3T3
Cytochrome P450 2D6 = Cytochrome P450 2D6 (Homo sapiens, UniProt P10635);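 further: CYP2D6 member of a cytochrome P450 panel assay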
[2] = molecular target: T1, Low molecular weight phosphotyrosine protein phosphatase (Homo sapiens, UniProt P24666); format: functional; conditions: read-out: IC50_Mean
T1 sequence (P24666 whole entry): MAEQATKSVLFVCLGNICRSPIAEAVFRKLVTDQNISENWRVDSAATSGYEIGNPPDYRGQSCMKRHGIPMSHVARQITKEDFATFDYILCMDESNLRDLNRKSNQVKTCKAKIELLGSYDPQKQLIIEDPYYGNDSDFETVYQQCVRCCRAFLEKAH

[3] = molecular target: T1, Low molecular weight phosphotyrosine protein phosphatase; format: functional; conditions: read-out: IC50_Mean; remark: listed apart in the source
Cytochrome P450 3A4 = Cytochrome P450 3A4 (Homo sapiens, UniProt P08684);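 further: CYP3A4 tested as one member of a cytochrome P450 panel screen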
Cytochrome P450 3A4, sequence (P08684 whole entry): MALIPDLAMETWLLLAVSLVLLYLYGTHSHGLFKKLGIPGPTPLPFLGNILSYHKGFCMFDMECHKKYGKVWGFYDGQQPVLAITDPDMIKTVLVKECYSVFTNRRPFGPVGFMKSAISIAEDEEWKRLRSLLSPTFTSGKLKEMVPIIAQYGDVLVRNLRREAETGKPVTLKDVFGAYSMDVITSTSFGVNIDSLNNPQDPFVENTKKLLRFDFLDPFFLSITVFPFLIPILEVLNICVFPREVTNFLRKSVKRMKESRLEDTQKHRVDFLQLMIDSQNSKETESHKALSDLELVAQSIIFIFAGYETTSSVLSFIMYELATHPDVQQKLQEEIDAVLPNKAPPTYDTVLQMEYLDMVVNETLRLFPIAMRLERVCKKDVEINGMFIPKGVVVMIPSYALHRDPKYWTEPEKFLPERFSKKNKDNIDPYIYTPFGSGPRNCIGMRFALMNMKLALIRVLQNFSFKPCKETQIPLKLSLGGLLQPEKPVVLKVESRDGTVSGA

Melanocortin receptor 4 = Melanocortin receptor 4 (Homo sapiens, UniProt P32245); format: functional, cell-based;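 further: Cell-based assay with luminescence read-out, confirmatory dose-response testing for agonist activity of biased ligands at MC4R; human U2OS cells with tagged receptor and beta-arrestin; potency of agonists that increase receptor coupling to beta-arrestin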
Melanocortin receptor 4, sequence (P32245 whole entry): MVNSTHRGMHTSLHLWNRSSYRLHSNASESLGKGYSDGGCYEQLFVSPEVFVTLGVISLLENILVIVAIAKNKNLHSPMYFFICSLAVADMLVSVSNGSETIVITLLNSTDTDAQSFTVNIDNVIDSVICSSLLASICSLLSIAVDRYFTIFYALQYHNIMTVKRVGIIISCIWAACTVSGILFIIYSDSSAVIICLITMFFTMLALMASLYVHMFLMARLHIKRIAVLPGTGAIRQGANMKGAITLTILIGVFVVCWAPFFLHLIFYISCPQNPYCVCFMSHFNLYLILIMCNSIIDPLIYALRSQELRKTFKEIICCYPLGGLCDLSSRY

Cytochrome P450 2C9 = Cytochrome P450 2C9 (Homo sapiens, UniProt P11712)
Cytochrome P450 2C19 = Cytochrome P450 2C19 (Homo sapiens, UniProt P33261); test: Cytochrome panel assay with activity outcomes. Panel member name: p450-cyp2c19 Compounds with AC50 equal or less than 10 uM are considered active; format: functional; conditions: read-out: AC50
Cytochrome P450 2C19, sequence (P33261 whole entry, the tested form may be a part): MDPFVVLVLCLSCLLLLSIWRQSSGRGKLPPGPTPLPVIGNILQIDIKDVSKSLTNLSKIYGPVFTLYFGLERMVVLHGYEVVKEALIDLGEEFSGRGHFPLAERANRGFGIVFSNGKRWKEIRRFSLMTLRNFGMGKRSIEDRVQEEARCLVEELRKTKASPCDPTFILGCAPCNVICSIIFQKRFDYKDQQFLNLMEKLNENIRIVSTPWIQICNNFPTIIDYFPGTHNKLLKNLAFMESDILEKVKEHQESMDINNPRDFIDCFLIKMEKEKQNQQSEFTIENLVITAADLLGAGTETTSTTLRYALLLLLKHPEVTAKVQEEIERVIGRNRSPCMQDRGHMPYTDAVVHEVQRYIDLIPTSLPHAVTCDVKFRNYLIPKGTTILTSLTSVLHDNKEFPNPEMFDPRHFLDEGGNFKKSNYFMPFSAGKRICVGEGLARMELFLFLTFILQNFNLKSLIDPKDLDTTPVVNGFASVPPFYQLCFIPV

[4] = inhibition of ARNT PAS-B/TACC3 complex formation – biochemical, AlphaScreen, cherry-picked samples, confirmation (AID 651703); format: functional, Homo sapiens;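 further: His-tagged ARNT PAS-B domain paired with GST-TACC3 E629A dimer coactivator fragment; potency of inhibitors that break up the complex and lower AlphaScreen signal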
[5] = molecular target: Ras and Rab interactor 1/Tyrosine-protein kinase ABL1 (Homo sapiens, UniProt P00519+Q13671); format: functional;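 further: biochemical TR-FRET dose-response test measuring inhibition of binding between Rin1 and Abl proteins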
Ras and Rab interactor 1/Tyrosine-protein kinase ABL1, sequence (P00519 whole entry): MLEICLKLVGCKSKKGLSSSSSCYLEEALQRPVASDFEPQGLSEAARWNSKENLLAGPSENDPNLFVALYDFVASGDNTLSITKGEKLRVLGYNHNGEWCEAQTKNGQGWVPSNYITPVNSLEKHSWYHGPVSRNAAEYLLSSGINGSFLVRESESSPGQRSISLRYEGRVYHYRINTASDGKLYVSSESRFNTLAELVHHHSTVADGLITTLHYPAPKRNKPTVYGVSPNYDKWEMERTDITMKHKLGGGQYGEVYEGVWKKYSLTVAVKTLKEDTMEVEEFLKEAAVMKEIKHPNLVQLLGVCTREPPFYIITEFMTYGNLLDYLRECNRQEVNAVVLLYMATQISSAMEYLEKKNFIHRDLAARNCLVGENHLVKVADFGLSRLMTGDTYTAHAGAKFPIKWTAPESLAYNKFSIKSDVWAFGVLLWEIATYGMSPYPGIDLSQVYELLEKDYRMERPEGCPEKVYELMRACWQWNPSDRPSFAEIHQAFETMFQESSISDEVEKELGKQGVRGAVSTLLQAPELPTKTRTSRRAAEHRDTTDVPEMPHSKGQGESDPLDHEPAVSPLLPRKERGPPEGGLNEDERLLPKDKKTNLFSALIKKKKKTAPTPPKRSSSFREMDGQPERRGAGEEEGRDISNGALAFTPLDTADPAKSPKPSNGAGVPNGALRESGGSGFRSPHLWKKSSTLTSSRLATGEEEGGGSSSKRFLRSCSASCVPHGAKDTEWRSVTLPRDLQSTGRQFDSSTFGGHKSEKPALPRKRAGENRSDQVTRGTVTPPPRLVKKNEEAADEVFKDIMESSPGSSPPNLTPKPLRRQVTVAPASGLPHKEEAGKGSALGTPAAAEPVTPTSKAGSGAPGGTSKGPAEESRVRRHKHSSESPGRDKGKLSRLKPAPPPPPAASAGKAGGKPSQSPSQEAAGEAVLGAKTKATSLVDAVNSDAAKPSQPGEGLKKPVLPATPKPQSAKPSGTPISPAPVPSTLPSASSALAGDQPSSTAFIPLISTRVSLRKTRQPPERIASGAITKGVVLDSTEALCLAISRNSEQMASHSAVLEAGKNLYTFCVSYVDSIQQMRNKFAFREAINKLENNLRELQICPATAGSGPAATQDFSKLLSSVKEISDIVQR
Ras and Rab interactor 1/Tyrosine-protein kinase ABL1, sequence (Q13671 whole entry): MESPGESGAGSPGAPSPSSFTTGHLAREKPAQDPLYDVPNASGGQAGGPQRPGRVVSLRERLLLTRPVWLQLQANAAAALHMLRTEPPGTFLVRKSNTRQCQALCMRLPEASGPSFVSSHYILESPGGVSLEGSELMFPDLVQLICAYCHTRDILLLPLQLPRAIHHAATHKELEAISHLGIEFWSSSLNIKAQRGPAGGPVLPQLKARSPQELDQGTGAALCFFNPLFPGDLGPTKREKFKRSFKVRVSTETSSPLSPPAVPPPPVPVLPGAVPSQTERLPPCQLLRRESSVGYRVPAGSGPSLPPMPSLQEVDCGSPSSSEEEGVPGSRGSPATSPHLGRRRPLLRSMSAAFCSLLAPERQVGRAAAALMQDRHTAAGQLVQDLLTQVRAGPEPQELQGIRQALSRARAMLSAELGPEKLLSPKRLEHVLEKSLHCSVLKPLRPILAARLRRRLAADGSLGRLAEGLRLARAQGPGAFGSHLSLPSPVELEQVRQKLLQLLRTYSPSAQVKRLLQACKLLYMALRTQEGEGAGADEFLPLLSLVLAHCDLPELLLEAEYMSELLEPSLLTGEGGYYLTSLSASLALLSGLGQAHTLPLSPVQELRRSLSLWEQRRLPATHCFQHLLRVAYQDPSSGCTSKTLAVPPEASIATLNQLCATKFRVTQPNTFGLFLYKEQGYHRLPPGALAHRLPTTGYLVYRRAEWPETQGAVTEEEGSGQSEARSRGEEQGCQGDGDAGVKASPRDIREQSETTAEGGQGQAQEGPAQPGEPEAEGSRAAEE

[6] = molecular target: Aryl hydrocarbon receptor (Homo sapiens, UniProt P35869); conditions: Potency;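 further: confirmatory quantitative high-throughput screen measuring activation of the AhR signaling pathway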
Aryl hydrocarbon receptor, sequence (P35869 whole entry): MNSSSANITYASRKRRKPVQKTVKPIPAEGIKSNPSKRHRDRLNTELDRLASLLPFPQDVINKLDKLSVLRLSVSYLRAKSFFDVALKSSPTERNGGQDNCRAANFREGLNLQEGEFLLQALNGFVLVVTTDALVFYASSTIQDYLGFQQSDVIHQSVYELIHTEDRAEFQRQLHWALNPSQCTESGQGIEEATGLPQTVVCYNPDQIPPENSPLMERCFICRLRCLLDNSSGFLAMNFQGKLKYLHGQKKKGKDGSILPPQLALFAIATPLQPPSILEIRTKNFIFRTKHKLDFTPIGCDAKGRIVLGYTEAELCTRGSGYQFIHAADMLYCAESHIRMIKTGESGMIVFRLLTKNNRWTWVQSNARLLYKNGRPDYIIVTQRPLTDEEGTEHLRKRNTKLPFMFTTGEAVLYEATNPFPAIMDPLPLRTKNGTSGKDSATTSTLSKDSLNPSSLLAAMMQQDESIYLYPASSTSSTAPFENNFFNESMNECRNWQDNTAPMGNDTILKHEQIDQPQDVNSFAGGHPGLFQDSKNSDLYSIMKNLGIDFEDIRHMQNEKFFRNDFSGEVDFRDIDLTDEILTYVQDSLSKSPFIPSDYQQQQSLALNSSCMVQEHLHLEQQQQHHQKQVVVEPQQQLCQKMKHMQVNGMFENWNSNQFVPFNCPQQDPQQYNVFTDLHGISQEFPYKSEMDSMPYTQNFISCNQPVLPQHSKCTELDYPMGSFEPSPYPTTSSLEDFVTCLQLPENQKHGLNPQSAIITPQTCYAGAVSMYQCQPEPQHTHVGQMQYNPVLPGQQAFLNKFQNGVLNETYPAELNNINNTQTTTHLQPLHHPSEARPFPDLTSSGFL

[7] = molecular target: T2, Tyrosine-protein phosphatase non-receptor type 7 (Homo sapiens, UniProt P35236); format: functional
T2 sequence (P35236 whole entry): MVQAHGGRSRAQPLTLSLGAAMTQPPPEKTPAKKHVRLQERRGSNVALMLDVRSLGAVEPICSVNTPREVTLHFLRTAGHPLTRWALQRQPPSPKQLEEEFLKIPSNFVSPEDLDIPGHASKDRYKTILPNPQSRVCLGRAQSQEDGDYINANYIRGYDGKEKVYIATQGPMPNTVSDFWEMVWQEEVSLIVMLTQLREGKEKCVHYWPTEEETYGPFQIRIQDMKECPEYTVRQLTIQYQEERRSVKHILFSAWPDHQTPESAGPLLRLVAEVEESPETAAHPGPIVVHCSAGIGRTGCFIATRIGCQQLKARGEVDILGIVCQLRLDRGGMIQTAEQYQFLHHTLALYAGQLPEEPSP

[8] = molecular target: T3, Small ubiquitin-related modifier 2 (Homo sapiens, UniProt P61956); test: SUMO2 binding disruption by SUMO1 hits – biochemical, FRET, human SUMO2, uHTS hits, selectivity assay for SUMO1 interaction inhibitor project, dose response (AID 624384); format: functional; conditions: read-out: IC50_Mean
T3 sequence (P61956 whole entry): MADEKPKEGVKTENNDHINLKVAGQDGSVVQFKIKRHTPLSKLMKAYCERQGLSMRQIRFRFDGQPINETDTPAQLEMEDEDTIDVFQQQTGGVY

[9] = molecular target: Glyceraldehyde-3-phosphate dehydrogenase (Homo sapiens, UniProt P04406)
[10] = molecular target: T4, Dual specificity protein phosphatase 6 (Rattus norvegicus, UniProt Q64346)
T4 sequence (Q64346 whole entry): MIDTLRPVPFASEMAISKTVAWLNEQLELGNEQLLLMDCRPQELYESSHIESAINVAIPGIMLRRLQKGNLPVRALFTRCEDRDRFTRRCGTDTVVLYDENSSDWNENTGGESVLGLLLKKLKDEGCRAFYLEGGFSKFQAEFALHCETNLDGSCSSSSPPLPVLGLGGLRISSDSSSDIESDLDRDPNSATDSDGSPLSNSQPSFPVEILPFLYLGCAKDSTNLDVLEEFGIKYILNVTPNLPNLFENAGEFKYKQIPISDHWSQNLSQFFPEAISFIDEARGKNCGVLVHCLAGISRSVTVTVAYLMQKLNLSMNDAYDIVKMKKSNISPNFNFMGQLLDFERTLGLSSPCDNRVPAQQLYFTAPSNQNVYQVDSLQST

[11] = molecular target: T5, Rac GTPase-activating protein 1 (Homo sapiens, UniProt Q9H0H5); test: blockers of MgcRacGAP-driven Rac1 GTP hydrolysis – biochemical, ADP Hunter fluorescence, primary and confirmatory, confirmation (AID 624330); format: functional
T5 sequence (Q9H0H5 whole entry): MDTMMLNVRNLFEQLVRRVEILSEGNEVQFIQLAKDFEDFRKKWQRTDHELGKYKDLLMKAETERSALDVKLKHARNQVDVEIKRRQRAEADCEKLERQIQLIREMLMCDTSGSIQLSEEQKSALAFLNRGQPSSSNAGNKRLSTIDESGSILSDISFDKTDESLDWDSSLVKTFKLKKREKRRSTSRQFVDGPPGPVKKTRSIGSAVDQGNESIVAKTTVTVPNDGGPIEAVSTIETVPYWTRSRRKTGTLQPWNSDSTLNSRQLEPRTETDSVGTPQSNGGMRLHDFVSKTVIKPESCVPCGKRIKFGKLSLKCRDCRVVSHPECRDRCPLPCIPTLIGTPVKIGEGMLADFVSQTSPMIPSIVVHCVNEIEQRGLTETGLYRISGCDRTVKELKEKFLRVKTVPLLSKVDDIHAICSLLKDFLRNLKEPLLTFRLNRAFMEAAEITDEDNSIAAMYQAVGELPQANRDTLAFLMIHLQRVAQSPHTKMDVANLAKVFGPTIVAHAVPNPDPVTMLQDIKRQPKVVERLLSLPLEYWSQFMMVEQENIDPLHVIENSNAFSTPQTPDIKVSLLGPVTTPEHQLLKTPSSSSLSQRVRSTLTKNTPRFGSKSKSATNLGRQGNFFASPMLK

ORF 73 = molecular target: T6, ORF 73 (Human herpesvirus 8, UniProt O40947); test: KSHV LANA DNA-binding disruption – biochemical, fluorescence polarization, cherry-picked samples, dose response (AID 504725); set-up: species or system Human gammaherpesvirus 8;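 further: fluorescence polarization of a labeled DNA duplex reporting LANA DNA binding; potency is for inhibitors that block LANA binding to the DNA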
T6 sequence (O40947 whole entry): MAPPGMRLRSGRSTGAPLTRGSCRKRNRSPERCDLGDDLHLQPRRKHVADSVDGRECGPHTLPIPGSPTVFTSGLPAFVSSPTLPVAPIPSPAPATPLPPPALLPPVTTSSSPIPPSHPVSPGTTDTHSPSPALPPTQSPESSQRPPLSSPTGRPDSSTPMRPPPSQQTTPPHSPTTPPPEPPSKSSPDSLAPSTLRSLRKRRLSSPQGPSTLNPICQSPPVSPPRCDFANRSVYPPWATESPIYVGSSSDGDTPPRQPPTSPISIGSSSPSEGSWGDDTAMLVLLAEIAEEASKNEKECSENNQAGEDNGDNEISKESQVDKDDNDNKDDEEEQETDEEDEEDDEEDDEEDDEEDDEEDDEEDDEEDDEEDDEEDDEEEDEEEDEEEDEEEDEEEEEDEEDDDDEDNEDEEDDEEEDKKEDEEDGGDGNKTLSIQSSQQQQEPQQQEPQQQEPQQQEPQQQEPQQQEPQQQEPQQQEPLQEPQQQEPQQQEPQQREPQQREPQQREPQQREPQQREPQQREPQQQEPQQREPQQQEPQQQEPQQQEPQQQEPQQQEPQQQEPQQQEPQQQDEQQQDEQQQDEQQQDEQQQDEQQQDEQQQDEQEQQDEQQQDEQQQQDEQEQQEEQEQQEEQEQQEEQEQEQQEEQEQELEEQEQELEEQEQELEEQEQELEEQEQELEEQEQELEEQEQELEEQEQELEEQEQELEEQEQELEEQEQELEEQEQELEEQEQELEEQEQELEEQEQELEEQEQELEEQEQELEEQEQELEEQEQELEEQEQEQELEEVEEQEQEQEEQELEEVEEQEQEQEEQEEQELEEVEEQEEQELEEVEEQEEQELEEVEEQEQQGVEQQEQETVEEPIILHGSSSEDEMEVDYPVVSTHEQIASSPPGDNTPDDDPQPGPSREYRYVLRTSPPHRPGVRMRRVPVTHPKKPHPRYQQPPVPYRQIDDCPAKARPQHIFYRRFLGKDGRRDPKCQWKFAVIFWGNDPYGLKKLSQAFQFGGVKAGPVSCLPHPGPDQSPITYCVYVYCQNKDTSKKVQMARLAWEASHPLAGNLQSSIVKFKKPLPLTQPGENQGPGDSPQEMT

Large T antigen = Large T antigen (Simian virus 40, UniProt P03070); format: functional, Betapolyomavirus macacae;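 further: Confirmatory-stage PubChem screen for compounds that inhibit SV40 T antigen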
[12] = molecular target: Heat shock cognate 71 kDa protein (Homo sapiens, UniProt P11142); test: In Vitro Hsc70 Dose Response Fluorescence Polarization Assay. [Related pubchem assays: 1072 ]
[13] = molecular target: T4, Dual specificity protein phosphatase 6; format: functional
[14] = molecular target: Heat shock 70 kDa protein 1A (Homo sapiens, UniProt P0DMV8); test: inhibition of Hsp70 binding activity – biochemical, fluorescence polarization, SAR follow-up (AID 1072)
[15] = molecular target: T7, Small ubiquitin-related modifier 1 (Homo sapiens, UniProt P63165); test: SUMO1 protein interaction blockers, potency – biochemical, fluorescence polarization, uHTS hits, dose response (AID 624382); format: functional; conditions: read-out: IC50_Mean
T7 sequence (P63165 whole entry): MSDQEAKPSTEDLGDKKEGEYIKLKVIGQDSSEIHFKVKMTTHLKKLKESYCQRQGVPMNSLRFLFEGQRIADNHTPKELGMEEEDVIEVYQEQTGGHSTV

[16] = molecular target: T3, Small ubiquitin-related modifier 2; test: disruption of SUMO2 interaction with SIM peptide – biochemical, fluorescence polarization, uHTS hits, selectivity assay for SUMO1 interaction inhibitor project, dose response (AID 624385); format: functional; conditions: read-out: IC50_Mean
NS3 = NS3 (Hepatitis C virus, UniProt A3EZJ3); test: PubChem AID 2173; set-up: species or system Hepacivirus hominis
HeLa = test: viability loss in HeLa cells – cell-based, 24 h, cherry-picked samples, cytotoxicity control, dose response (AID 504726); format: functional; conditions: Homo sapiens;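 further: potency for cytotoxicity as loss of luminescence signal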
[17] = molecular target: T7, Small ubiquitin-related modifier 1; test: SUMO1 protein-protein binding blockers, potency – biochemical, FRET, dose response (AID 624383); format: functional; conditions: read-out: IC50_Mean
[18] = molecular target: Mitochondrial peptide methionine sulfoxide reductase (Bos taurus, UniProt P54149); test: Absorbance-based biochemical high throughput dose response assay for activators of Methionine sulfoxide reductase A (MsrA).; format: functional
[19] = molecular target: Heat shock protein HSP 90-alpha (Homo sapiens, UniProt P07900); format: functional, organism-based
[20] = Trypanosoma cruzi growth suppression in host cells – NIH3T3 host cells, beta-gal luminescence, confirmation (AID 2044); format: functional, cell-based;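 further: intracellular parasites grown in NIH/3T3 mouse fibroblasts as host cells; luminescent beta-galactosidase reporter signal from transgenic T. cruzi replicating inside host cells; inhibitors lower the luminescence signal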
[21] = molecular target: T8, Mannose-6-phosphate isomerase (Homo sapiens, UniProt P34949); test: MPI inhibition at elevated mannose 6-phosphate – biochemical, fluorescence intensity, high mannose 6-phosphate, primary screen (AID 1220)
T8 sequence (P34949 whole entry): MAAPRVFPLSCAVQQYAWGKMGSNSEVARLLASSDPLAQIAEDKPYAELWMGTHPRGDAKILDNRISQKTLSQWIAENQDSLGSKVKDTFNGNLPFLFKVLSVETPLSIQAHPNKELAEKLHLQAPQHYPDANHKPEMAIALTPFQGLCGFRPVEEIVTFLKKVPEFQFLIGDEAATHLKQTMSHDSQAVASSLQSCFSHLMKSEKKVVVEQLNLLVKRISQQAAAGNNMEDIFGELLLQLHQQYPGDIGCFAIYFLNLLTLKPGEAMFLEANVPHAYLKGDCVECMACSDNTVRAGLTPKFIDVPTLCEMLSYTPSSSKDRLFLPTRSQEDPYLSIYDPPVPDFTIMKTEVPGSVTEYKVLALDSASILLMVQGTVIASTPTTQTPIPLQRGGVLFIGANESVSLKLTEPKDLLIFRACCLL

[22] = NIH3T3 cell viability loss – ATP luminescence, mouse fibroblasts, counter-screen, dose response (AID 2010); format: functional, cell-based;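 further: cells exposed to compound for about 90 hours before reading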

Cytochrome P450 2D6, sequence (P10635 whole entry): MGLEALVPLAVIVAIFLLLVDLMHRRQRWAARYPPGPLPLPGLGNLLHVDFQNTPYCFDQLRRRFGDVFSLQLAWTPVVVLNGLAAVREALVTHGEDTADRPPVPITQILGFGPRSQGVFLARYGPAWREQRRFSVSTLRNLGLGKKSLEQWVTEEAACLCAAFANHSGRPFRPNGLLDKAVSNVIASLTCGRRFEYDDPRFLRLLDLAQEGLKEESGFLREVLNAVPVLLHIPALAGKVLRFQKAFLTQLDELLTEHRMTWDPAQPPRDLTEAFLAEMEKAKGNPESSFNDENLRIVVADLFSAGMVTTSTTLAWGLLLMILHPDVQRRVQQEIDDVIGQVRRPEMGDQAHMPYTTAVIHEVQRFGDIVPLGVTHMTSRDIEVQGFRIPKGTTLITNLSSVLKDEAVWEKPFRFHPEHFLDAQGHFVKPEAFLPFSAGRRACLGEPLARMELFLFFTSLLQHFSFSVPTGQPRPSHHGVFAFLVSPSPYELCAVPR

Cc1ccc(S(=O)(=O)Nc2ccc3c(c2)CC(=O)N([C@@H](C)CO)C[C@@H](C)[C@H](CN(C)S(=O)(=O)c2ccc(Cl)cc2)O3)cc1
AC50 [1]: 17.8 µM (active)

c1ccc(-c2nc(NCc3cccnc3)c3ccccc3n2)cc1
AC50 (Cytochrome P450 2D6): 17.8 µM (inconclusive)
IC50 [2]: 8.37 µM (active)
IC50 [3]: 25.1 µM (inactive)
AC50 (Cytochrome P450 3A4): 1 µM (inconclusive)

Cc1cc(C)nc(Nc2nc(C(N)Cc3ccc(C(F)(F)F)cc3)cs2)n1 (stereo unspecified)
EC50 (Melanocortin receptor 4): > 89.2 µM (inactive)

CC(C)c1ccc(O)c(NC(=O)c2nc[nH]n2)c1
AC50 (Cytochrome P450 2C9): 20 µM (inconclusive)
AC50 (Cytochrome P450 2C19): 25.1 µM (inconclusive)
AC50 [4]: 118 µM (active)

CCC(c1nc2ccccc2c(=O)n1CCCn1ccnc1)N1C(=O)c2ccccc2C1=O (stereo unspecified)
IC50 [5]: 35.2 µM (inactive)

CCSC(=O)N(CC)C1CCCCC1 [CYCLOATE]
AC50 [6]: 0.794 µM (inconclusive)

Cc1cc(C)c2c(c1)NC(C(=O)O)C1CC=CC21 (stereo unspecified)
IC50 [7]: > 100 µM (not active)
IC50 [8]: 3.69 µM (active)
IC50 [9]: 91.4 µM (active)
IC50 [10]: 41.3 µM (active)
IC50 [11]: 171 µM (active)
AC50 (ORF 73): 61.2 µM (active)
IC50 (Large T antigen): 26.8 µM (active)
IC50 [12]: > 100 µM (not active)
IC50 [13]: 46.1 µM (active)
IC50 [14]: > 100 µM (not active)
IC50 [15]: 4.97 µM (active)
IC50 [16]: 13.4 µM (active)
IC50 (NS3): 3.67 µM (active)
AC50 (HeLa): 264 µM (active)
IC50 [17]: 22.8 µM (inactive)

O=[N+]([O-])c1ccc(/C=N/c2cccc3ccccc23)s1
EC50 [18]: > 104 µM (inactive)
AC50 [19]: 7.99 µM (active)
EC50 [20]: 2.73 µM (active)
IC50 [21]: > 50 µM (not active)
EC50 [22]: > 60 µM (not active)

From ChEMBL document CHEMBL1201862, “PubChem BioAssay data set” (2004)
